Test results taken from ChEMBL document CHEMBL1862790, “Optimisation of fenarimol series for the treatment of Chagas disease”.

Experiments:
Trypanosoma cruzi [1] = experiment: microbe, parasite or virus in culture; format: functional, Tulahuen LacZ, Clone C4; settings: Trypanosoma cruzi, Tulahuen LacZ, Clone C4
Trypanosoma cruzi [2] = experiment: microbe, parasite or virus in culture; format: functional, organism-based, Tulahuen LacZ, Clone C4; settings: Trypanosoma cruzi, Tulahuen LacZ, Clone C4
[3] = DNDI: Cytotoxicity against L-6 rat myoblasts from skeletal muscle cells; settings: L6 rat skeletal muscle myoblast cells, IC50

Row | IC90 (Trypanosoma cruzi [1]) | IC50 (Trypanosoma cruzi [2]) | Structure (SMILES) | IC50 [3]
1 | 0.773 µM | 0.264 µM | Cc1cc(C(=O)N2CCC(NC(c3ccc(C(F)(F)F)cc3)c3cccnc3)CC2)n(C)n1 (stereo not drawn) | > 100 µM
2 | 0.044 µM | 0.0195 µM | Cc1nc(C(=O)NC2CCN(C(c3ccc(C(F)(F)F)cc3)c3cccnc3)CC2)co1 (stereo not drawn) | 56.4 µM
3 | 0.515 µM | 0.141 µM | Cc1noc(C)c1C(=O)N1CCC(NC(c2ccc(C(F)(F)F)cc2)c2cncs2)CC1 (stereo not drawn) | > 100 µM
4 | 0.128 µM | 0.068 µM | CC(C)(C)NC(=O)N1CCC(NC(c2ccc(C(F)(F)F)cc2)c2cncs2)CC1 (stereo not drawn) | > 100 µM
5 | 0.868 µM | 0.413 µM | O=C(C1CCC1)N1CCN(C(c2cncnc2)c2ccc(Cl)cc2F)CC1 (stereo not drawn) | > 100 µM
6 | 0.0249 µM | 0.00748 µM | N#Cc1ccccc1N1CCC(NC(c2cccnc2)c2ccc(Cl)cc2F)CC1 (stereo not drawn) | 39.9 µM
7 | 0.101 µM | 0.029 µM | Cc1cnc(N2CCC(NC(c3ccc(C(F)(F)F)cc3)c3cccnc3)CC2)s1 (stereo not drawn) | 59.9 µM
8 | 0.963 µM | 0.261 µM | Cc1cc(C(=O)NC2CCN(C(c3ccc(C#N)cc3)c3cccnc3)CC2)nn1C (stereo not drawn) | > 100 µM
9 | 0.208 µM | 0.0815 µM | Cn1ccnc1C(=O)N1CCC(NC(c2ccc(C(F)(F)F)cc2)c2cccnc2)CC1 (stereo not drawn) | > 100 µM
10 | 0.041 µM | 0.0175 µM | Cc1nc(C(=O)NC2CCN(C(c3ccc(C(F)(F)F)cc3)c3cccnc3)CC2)cs1 (stereo not drawn) | 43.8 µM
11 | > 1 µM | > 1 µM | OC(c1ccc(C(F)(F)F)cc1)(c1cncc(Cl)c1)c1ccc(Cl)cc1F (stereo not drawn) | 78.7 µM
12 | 0.72 µM | 0.189 µM | O=C(c1ccccc1)N1CC(NC(c2ccc(C(F)(F)F)cc2)c2cccnc2)C1 (stereo not drawn) | 83.8 µM
13 | 0.269 µM | 0.0665 µM | Cc1cc(C(=O)N2CCC(NC(c3ccc(C(F)(F)F)cc3)c3cccnc3)CC2)nn1C (stereo not drawn) | 58.6 µM
14 | 0.207 µM | 0.0705 µM | CCn1nc(C)cc1C(=O)N1CCC(NC(c2ccc(C(F)(F)F)cc2)c2cccnc2)CC1 (stereo not drawn) | > 100 µM
15 | 0.933 µM | 0.504 µM | CCn1nc(C)cc1C(=O)NC1CCN(C(c2ccc(C#N)cc2)c2cccnc2)CC1 (stereo not drawn) | > 100 µM
16 | 0.553 µM | 0.186 µM | Cc1ncsc1C(=O)N1CC(NC(c2ccc(C(F)(F)F)cc2)c2cccnc2)C1 (stereo not drawn) | > 100 µM
17 | 0.917 µM | 0.448 µM | N#Cc1ccc(C(c2cccnc2)N2CCC(NC(=O)c3cc[nH]n3)CC2)cc1 (stereo not drawn) | > 100 µM
18 | 0.689 µM | 0.197 µM | Cc1cc(C(=O)NC2CCN(C(c3ccc(C#N)cc3)c3cccnc3)CC2)on1 (stereo not drawn) | > 100 µM
19 | > 1 µM | > 1 µM | FC(F)(F)c1ccc(C(NC2CCN(c3ncccn3)CC2)c2cscn2)cc1 (stereo not drawn) | 88.1 µM
20 | 0.131 µM | 0.0585 µM | Cc1ncsc1C(=O)N1CCN(C(c2cccnc2)c2ccc(C(F)(F)F)cc2F)CC1 (stereo not drawn) | 96.9 µM
21 | 0.143 µM | 0.067 µM | O=C(c1ccccc1)N1CC(CNC(c2ccc(C(F)(F)F)cc2)c2cccnc2)C1 (stereo not drawn) | > 100 µM
22 | 0.571 µM | 0.294 µM | O=C(c1cc[nH]n1)N1CCC(NC(c2ccc(C(F)(F)F)cc2)c2cccnc2)CC1 (stereo not drawn) | > 100 µM

Row | IC90 (Trypanosoma cruzi [1]) | IC50 (Trypanosoma cruzi [2]) | Structure (SMILES) | IC50 [3]
23 | 0.0104 µM | 0.00448 µM | N#Cc1ccc(C(c2cccnc2)N2CCC(NC(=O)c3c(F)cccc3C(F)(F)F)CC2)cc1 (stereo not drawn) | > 100 µM
24 | 0.969 µM | 0.591 µM | Cc1nc(C(=O)N2CCC(NC(c3ccc(C(F)(F)F)cc3)c3cccnc3)CC2)co1 (stereo not drawn) | > 100 µM
25 | 0.149 µM | 0.0265 µM | Cc1n[nH]c(C)c1C(=O)N1CCC(NC(c2ccc(C(F)(F)F)cc2)c2cccnc2)CC1 (stereo not drawn) | > 100 µM
26 | 0.0545 µM | 0.018 µM | Fc1cccc(F)c1N1CCC(NC(c2ccc(C(F)(F)F)cc2)c2cccnc2)CC1 (stereo not drawn) | 54.2 µM
27 | 0.168 µM | 0.0695 µM | Cc1nnc(N2CCC(NC(c3ccc(C(F)(F)F)cc3)c3cccnc3)CC2)s1 (stereo not drawn) | > 100 µM
28 | 0.24 µM | 0.0685 µM | Cc1ncsc1C(=O)N1CCC(NC(c2ccc(C(F)(F)F)cc2)c2cncs2)CC1 (stereo not drawn) | > 100 µM
29 | 0.12 µM | 0.031 µM | N#Cc1ccnc(N2CCC(NC(c3ccc(C(F)(F)F)cc3)c3cccnc3)CC2)n1 (stereo not drawn) | 49.7 µM
30 | 0.332 µM | 0.121 µM | CC(C)(C)OC(=O)N1CC(CNC(c2ccc(C(F)(F)F)cc2)c2cccnc2)C1 (stereo not drawn) | > 100 µM
31 | 0.0335 µM | 0.0125 µM | Fc1cc(Cl)ccc1C(NC1CCN(c2c(F)cccc2F)CC1)c1cccnc1 (stereo not drawn) | 56.3 µM
32 | 0.281 µM | 0.0995 µM | Cn1cc(C(=O)N2CCC(NC(c3ccc(C(F)(F)F)cc3)c3cccnc3)CC2)c(C(F)(F)F)n1 (stereo not drawn) | 77.1 µM
33 | 0.47 µM | 0.0695 µM | Cc1oncc1C(=O)N1CCC(NC(c2ccc(C(F)(F)F)cc2)c2cccnc2)CC1 (stereo not drawn) | > 100 µM
34 | 0.282 µM | 0.126 µM | Cc1noc(N2CCN(C(c3cncnc3)c3ccc(C(F)(F)F)cc3F)CC2)n1 (stereo not drawn) | > 100 µM
35 | 0.518 µM | 0.185 µM | Cc1n[nH]c(C)c1C(=O)NC1CCN(C(c2ccc(C#N)cc2)c2cccnc2)CC1 (stereo not drawn) | > 100 µM
36 | 0.0775 µM | 0.0285 µM | Cn1cc(C(=O)NC2CCN(C(c3ccc(C#N)cc3)c3cccnc3)CC2)c(C(F)(F)F)n1 (stereo not drawn) | > 100 µM
37 | 0.092 µM | 0.0365 µM | Nc1nc(N2CCN(C(c3cccnc3)c3ccc(C(F)(F)F)cc3F)CC2)no1 (stereo not drawn) | 57.8 µM
38 | 0.756 µM | 0.115 µM | FC(F)(F)c1ccc(C(NC2CN(c3ncccn3)C2)c2cccnc2)cc1 (stereo not drawn) | > 100 µM
39 | > 1 µM | 0.513 µM | Cc1ncsc1C(=O)N1CCN(C(c2ccc(C#N)cc2)c2cccnc2)CC1 (stereo not drawn) | > 100 µM
40 | 0.118 µM | 0.025 µM | FC(F)(F)c1ccc(C(NC2CCN(c3cncs3)CC2)c2cccnc2)cc1 (stereo not drawn) | 59.9 µM
41 | 0.671 µM | 0.22 µM | N#Cc1ccc(C(c2cccnc2)N2CCC(NC(=O)c3ccno3)CC2)cc1 (stereo not drawn) | > 100 µM
42 | 0.0195 µM | 0.007 µM | CC(C)(C)OC(=O)N1CCC(NC(c2ccc(C(F)(F)F)cc2)c2cncs2)CC1 (stereo not drawn) | 61.3 µM
43 | 0.149 µM | 0.0475 µM | Cc1cc(C(=O)N2CCC(NC(c3ccc(C(F)(F)F)cc3)c3cccnc3)CC2)n(C(C)(C)C)n1 (stereo not drawn) | 71.7 µM
44 | 0.779 µM | 0.363 µM | Cc1cc(C(=O)N2CCC(NC(c3ccc(C(F)(F)F)cc3)c3cccnc3)CC2)on1 (stereo not drawn) | > 100 µM

Row | IC90 (Trypanosoma cruzi [1]) | IC50 (Trypanosoma cruzi [2]) | Structure (SMILES) | IC50 [3]
45 | 0.106 µM | 0.033 µM | O=C(c1ccccc1)N1CCC(NC(c2ccc(C(F)(F)F)cc2)c2cncs2)CC1 (stereo not drawn) | 76.1 µM
46 | 0.585 µM | 0.165 µM | Cc1nocc1C(=O)N1CCC(NC(c2ccc(C(F)(F)F)cc2)c2cccnc2)CC1 (stereo not drawn) | > 100 µM
47 | 0.271 µM | 0.09 µM | O=C(c1ccno1)N1CCC(NC(c2ccc(C(F)(F)F)cc2)c2cccnc2)CC1 (stereo not drawn) | > 100 µM
48 | 0.702 µM | 0.095 µM | CC(C)(C)OC(=O)N1CC(NC(c2ccc(C(F)(F)F)cc2)c2cccnc2)C1 (stereo not drawn) | 62.5 µM
49 | 0.299 µM | 0.169 µM | Cn1cc(C(=O)NC2CCN(C(c3ccc(C#N)cc3)c3cccnc3)CC2)cn1 (stereo not drawn) | 54.3 µM
50 | 0.422 µM | 0.194 µM | OC(c1ccc(C(F)(F)F)cc1)(c1cncc(F)c1)c1ccc(Cl)cc1F (stereo not drawn) | 51.4 µM
51 | 0.064 µM | 0.02 µM | FC(F)(F)c1ccc(C(NC2CCN(c3ncccn3)CC2)c2cncs2)cc1 (stereo not drawn) | 76.7 µM
52 | 0.94 µM | 0.532 µM | CC(C)(C)OC(=O)N1CCN(C(c2cccnc2)c2ccc(C#N)cc2F)CC1 (stereo not drawn) | > 100 µM
53 | 0.455 µM | 0.057 µM | O=C(c1nccs1)N1CCC(NC(c2ccc(C(F)(F)F)cc2)c2cccnc2)CC1 (stereo not drawn) | > 100 µM
54 | 0.318 µM | 0.122 µM | COc1cncc(C(O)(c2ccc(C(F)(F)F)cc2)c2ccc(Cl)cc2F)c1 (stereo not drawn) | 67.4 µM
55 | 0.655 µM | 0.385 µM | Cn1cc(C(=O)N2CCC(NC(c3ccc(C(F)(F)F)cc3)c3cccnc3)CC2)cn1 (stereo not drawn) | > 100 µM
56 | 0.0205 µM | 0.007 µM | N#Cc1ccccc1N1CCC(NC(c2ccc(C(F)(F)F)cc2)c2cccnc2)CC1 (stereo not drawn) | 52.3 µM
57 | 0.807 µM | 0.327 µM | Cc1nc(C(=O)N2CCC(NC(c3ccc(C(F)(F)F)cc3)c3cccnc3)CC2)cs1 (stereo not drawn) | > 100 µM
58 | 0.696 µM | 0.254 µM | CC(C)(C)C(=O)N1CCN(C(c2ccc(C#N)cc2)c2cccnc2)CC1 (stereo not drawn) | > 100 µM
59 | 0.159 µM | 0.0495 µM | N#Cc1ccc(C(c2cccnc2)N2CCN(c3nccs3)CC2)cc1 (stereo not drawn) | > 100 µM
60 | 0.221 µM | 0.062 µM | Cc1cc(C(=O)NC2CCN(C(c3ccc(C#N)cc3)c3cccnc3)CC2)n(C(C)(C)C)n1 (stereo not drawn) | > 100 µM
61 | 0.0315 µM | 0.009 µM | FC(F)(F)c1ccc(C(NC2CCN(c3ccccc3C(F)(F)F)CC2)c2cccnc2)cc1 (stereo not drawn) | 45.8 µM
62 | 0.868 µM | 0.228 µM | OC(c1cccnc1)(c1cncc(F)c1)c1ccc(Cl)cc1F (stereo not drawn) | > 100 µM
63 | 0.482 µM | 0.239 µM | Cn1ccnc1C(=O)NC1CCN(C(c2ccc(C#N)cc2)c2cccnc2)CC1 (stereo not drawn) | > 100 µM
64 | 0.657 µM | 0.215 µM | Cc1nc(C)c(C(=O)N2CCC(NC(c3ccc(C(F)(F)F)cc3)c3cccnc3)CC2)s1 (stereo not drawn) | > 100 µM
65 | 0.094 µM | 0.034 µM | CC(C)(C)C(=O)N1CCC(NC(c2ccc(C(F)(F)F)cc2)c2cncs2)CC1 (stereo not drawn) | > 100 µM
66 | 0.0265 µM | 0.0135 µM | Cc1cc(C(=O)NC2CCN(C(c3ccc(C(F)(F)F)cc3)c3cccnc3)CC2)n(C(C)(C)C)n1 (stereo not drawn) | > 100 µM
